Source: ChEMBL document CHEMBL1201862, “PubChem BioAssay data set” (2004)
Calls of active or inactive are those of the source.

Tests used:
Type in all cases: functional
[1] = biological target: T1, Sentrin-specific protease 7 (Homo sapiens, UniProt Q9BQF6);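 further: Luminescence-based dose-response confirmation of ultra-high-throughput screening hits, measuring inhibition of SENP7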
T1 sequence (Q9BQF6 whole entry): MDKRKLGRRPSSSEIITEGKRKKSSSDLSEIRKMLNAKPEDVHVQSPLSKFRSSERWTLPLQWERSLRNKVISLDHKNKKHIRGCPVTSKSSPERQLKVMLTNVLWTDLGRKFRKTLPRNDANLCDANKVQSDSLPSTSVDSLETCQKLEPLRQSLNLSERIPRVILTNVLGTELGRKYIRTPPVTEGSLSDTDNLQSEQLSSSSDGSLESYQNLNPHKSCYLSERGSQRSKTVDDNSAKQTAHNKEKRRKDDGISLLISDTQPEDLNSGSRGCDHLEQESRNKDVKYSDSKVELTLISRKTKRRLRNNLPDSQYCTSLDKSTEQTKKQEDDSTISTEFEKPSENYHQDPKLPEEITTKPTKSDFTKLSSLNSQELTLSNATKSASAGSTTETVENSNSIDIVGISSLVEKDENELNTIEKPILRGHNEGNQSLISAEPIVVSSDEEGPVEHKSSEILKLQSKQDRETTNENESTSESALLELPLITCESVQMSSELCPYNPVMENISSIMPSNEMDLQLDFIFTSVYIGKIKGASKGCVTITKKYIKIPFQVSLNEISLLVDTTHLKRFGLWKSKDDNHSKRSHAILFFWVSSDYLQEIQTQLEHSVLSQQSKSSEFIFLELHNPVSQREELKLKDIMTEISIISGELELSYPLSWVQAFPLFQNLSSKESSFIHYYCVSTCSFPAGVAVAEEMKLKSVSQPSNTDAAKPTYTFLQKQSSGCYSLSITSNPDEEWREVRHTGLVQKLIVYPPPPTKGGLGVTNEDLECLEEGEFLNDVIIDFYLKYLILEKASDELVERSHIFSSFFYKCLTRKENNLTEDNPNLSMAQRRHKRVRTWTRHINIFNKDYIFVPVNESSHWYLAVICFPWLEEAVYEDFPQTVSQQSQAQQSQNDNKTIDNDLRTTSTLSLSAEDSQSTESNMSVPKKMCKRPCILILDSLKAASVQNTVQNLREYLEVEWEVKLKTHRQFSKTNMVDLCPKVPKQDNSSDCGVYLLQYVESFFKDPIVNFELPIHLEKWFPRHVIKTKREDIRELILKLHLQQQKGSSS

[2] = biological target: T2, Caspase-3 (Homo sapiens, UniProt P42574);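 further: Dose-response selectivity test against caspase-3 for candidate inhibitors of sentrin-specific proteases (SENPs)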
T2 sequence (P42574 whole entry): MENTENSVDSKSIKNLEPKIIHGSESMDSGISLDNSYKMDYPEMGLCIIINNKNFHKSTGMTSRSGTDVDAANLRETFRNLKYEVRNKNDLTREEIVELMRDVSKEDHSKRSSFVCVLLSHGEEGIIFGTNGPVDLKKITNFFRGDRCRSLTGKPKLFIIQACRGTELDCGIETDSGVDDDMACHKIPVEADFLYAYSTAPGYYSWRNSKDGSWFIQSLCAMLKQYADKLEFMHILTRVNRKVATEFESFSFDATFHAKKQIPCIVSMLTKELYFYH

[3] = biological target: T3, Replicative DNA helicase DnaB (Mycobacterium tuberculosis, UniProt P9WMR3); experiment: DnaB intein splicing inhibitors, dose response, biochemical, cell-free fluorescence (AID 449749)
T3 sequence (P9WMR3 whole entry): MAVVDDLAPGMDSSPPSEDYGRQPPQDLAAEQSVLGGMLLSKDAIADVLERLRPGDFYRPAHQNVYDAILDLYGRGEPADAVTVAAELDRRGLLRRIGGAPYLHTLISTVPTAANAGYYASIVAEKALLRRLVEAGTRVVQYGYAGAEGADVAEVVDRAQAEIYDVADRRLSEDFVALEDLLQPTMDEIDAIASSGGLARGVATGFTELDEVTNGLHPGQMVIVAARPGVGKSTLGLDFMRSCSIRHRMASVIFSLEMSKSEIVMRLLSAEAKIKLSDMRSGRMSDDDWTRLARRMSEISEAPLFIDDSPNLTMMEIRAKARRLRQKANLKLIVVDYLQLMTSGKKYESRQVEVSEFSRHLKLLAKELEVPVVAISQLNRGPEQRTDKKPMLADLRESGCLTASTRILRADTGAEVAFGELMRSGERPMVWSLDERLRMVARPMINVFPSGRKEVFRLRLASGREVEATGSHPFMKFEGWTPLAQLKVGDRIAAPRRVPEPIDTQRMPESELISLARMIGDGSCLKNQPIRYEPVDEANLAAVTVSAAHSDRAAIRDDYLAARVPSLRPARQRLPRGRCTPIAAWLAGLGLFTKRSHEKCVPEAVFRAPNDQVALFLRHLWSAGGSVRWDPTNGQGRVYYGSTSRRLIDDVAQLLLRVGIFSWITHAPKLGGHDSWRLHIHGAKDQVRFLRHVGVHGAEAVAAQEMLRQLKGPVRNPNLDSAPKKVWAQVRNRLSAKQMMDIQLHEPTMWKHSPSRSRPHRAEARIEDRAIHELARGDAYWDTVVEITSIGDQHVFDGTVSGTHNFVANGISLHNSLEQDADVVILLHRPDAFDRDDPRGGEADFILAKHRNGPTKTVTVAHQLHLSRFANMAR

[4] = biological target: T4, Protein RecA (Mycobacterium tuberculosis, UniProt P9WHJ3); experiment: Fluorescence Cell-Free Homogeneous Dose Retest to Identify Inhibitors of RecA-Intein Splicing Activity. [Related pubchem assays (depositor defined):AID2097, AID2223, AID489010, AID492950]
T4 sequence (P9WHJ3 whole entry): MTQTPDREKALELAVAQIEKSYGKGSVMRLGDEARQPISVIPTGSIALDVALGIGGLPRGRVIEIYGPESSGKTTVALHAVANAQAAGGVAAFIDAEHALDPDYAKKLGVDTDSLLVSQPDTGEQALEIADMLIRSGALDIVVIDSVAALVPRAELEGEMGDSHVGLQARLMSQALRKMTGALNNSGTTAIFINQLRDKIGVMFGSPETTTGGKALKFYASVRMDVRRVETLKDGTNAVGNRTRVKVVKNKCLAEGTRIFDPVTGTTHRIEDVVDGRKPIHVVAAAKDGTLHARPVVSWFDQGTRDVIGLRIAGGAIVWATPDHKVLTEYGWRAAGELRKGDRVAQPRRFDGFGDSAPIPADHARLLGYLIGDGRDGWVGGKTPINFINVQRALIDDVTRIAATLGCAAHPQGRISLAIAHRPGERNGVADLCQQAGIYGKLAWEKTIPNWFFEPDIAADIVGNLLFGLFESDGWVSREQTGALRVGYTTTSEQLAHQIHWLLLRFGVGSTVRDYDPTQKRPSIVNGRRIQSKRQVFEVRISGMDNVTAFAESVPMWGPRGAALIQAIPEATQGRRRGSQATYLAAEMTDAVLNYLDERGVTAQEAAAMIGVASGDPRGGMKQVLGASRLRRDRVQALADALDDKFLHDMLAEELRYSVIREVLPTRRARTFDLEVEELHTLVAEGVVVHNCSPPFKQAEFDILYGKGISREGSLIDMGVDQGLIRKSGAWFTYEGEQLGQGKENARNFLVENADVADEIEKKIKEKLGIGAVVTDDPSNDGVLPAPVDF

| Compound | IC50 [1] | IC50 [2] | AC50 [3] | EC50 [4] |
| --- | --- | --- | --- | --- |
| COc1ccc(/C=N/Nc2cc(N3CCCC3)nc(N3CCCC3)n2)cc1 | 5.23 µM (active) | > 100 µM (inactive) | – | – |
| Cc1cccc(C)c1-n1cccc1/C=C1\SC(=S)N(c2cccc(C(=O)O)c2)C1=O | – | – | 3.26 µM (active) | 9.09 µM (active) |
| Oc1ccc(/C=N/Nc2cc(N3CCCC3)nc(N3CCCC3)n2)cc1 | 31 µM (active) | > 100 µM (inactive) | – | – |
| COc1ccc(S(=O)(=O)/N=C2\C=C(Nc3ccc(O)cc3)C(=O)c3ccccc32)cc1 | – | – | > 380 µM (inconclusive) | 0.141 µM (active) |
